This is an account of results in PMC9060532 (RSC Advances, 2019).

The nature of data set [1]: Pharmacokinetic study in rats, plasma by HPLC-Ion-Trap-MS/MS. It counts as in vivo, Sprague-Dawley rats.
Data set [2] in a line: Stability of bornyl caffeate and caffeic acid in rat plasma. It counts as in vitro ADME. The following applies: for Autosampler stability Concentration measured / Autosampler stability Stability (%): processed rat plasma QC, autosampler 20 °C 24 h; for Autosampler stability Concentration measured / Autosampler stability Stability (%) / Short-term Concentration measured / Short-term Stability (%) / Freeze–thaw Concentration measured / Freeze–thaw Stability (%) / Long-term Concentration measured / Long-term Stability (%): n = 6; for Short-term Concentration measured / Short-term Stability (%) / Freeze–thaw Concentration measured / Freeze–thaw Stability (%) / Long-term Concentration measured / Long-term Stability (%): rat plasma; for Short-term Concentration measured / Short-term Stability (%): room temperature 24 h; for Freeze–thaw Concentration measured / Freeze–thaw Stability (%): three freeze–thaw cycles (−20 °C 24 h); for Long-term Concentration measured / Long-term Stability (%): −20 °C 3 weeks.

Data set [3] in a line: Metabolite identification in rat plasma, urine and feces by HPLC-Q-TOF MS/MS. The following applies: rats, bornyl caffeate ig 30 mg kg^−1; p plasma, u urine, f feces. It counts as in vivo, Sprague-Dawley rats.
Setting [4] is: CA in rat plasma after CA ig 17 mg kg^−1, n = 6.
Where [5] appears, read: Sprague-Dawley, rat, plasma, po, 17 mg/kg.

In the case of `O=C(O)/C=C/c1ccc(O)c(O)c1` [Caffeic acid], in data set [1] (setting [4]), the “T 1/2Ka” value came out at 7.2 ± 1.8 min and the “T 1/2α1” value amounted to 24 ± 5.4 min. Further, in data set [1] (setting [5]), the AUC(0-inf) stood at 821 ± 86.2 ng·h/mL, the AUC(0-t) was 787 ± 80.3 ng·h/mL, the highest level (Cmax) was 450 ± 13.8 ng/mL and the Tmax is 15 ± 0.6 min. Besides, in data set [2] (4 ng mL^−1 added), the “Autosampler stability Concentration measured” value was 3.93 ± 0.16 ng/mL, the “Autosampler stability Stability (%)” value stood at 98.25%, the “Short-term Concentration measured” value stood at 3.97 ± 0.15 ng/mL and the “Short-term Stability (%)” value amounted to 99.38%. For the same compound, in data set [2] (4 ng mL^−1 added), the “Freeze–thaw Concentration measured” value is 3.77 ± 0.14 ng/mL, the “Freeze–thaw Stability (%)” value worked out at 94.29%, the “Long-term Concentration measured” value was found to be 4.03 ± 0.18 ng/mL and the “Long-term Stability (%)” value was determined as 100.79%. In data set [2] (200 ng mL^−1 added), the “Autosampler stability Concentration measured” value amounted to 191.9 ± 6.19 ng/mL, the “Autosampler stability Stability (%)” value is recorded as 95.95%, the “Short-term Concentration measured” value stood at 196.41 ± 4.57 ng/mL and the “Short-term Stability (%)” value came out at 98.2%. In data set [2] (200 ng mL^−1 added), the “Freeze–thaw Concentration measured” value amounted to 202.1 ± 6.48 ng/mL, the “Freeze–thaw Stability (%)” value is given as 101.05%, the “Long-term Concentration measured” value was determined as 197.22 ± 6.86 ng/mL and the “Long-term Stability (%)” value was found to be 98.61%. Further, in data set [2] (3000 ng mL^−1 added), the “Autosampler stability Concentration measured” value worked out at 2991.17 ± 12.48 ng/mL, the “Autosampler stability Stability (%)” value is listed as 99.7%, the “Short-term Concentration measured” value is 3009.81 ± 6.45 ng/mL and the “Short-term Stability (%)” value is given as 100.33%. Moreover, in data set [2] (3000 ng mL^−1 added), the “Freeze–thaw Concentration measured” value was found to be 2835.08 ± 9.86 ng/mL, the “Freeze–thaw Stability (%)” value is 94.23%, the “Long-term Concentration measured” value came out at 2990.99 ± 4.97 ng/mL and the “Long-term Stability (%)” value is 99.7%. Also, the “stability in plasma (in words)” value in data set [2] (room temperature for 24 h, −20 °C for 3 weeks, or autosampler for 24 h) is “stable”.
Regarding `O=C(O)CCc1ccc(O)c(O)c1` [M4, Dihydrocaffeic acid], the “Location (samples in which parent or metabolite was detected)” value (“Location” for short) in data set [3] is on record as “observed in all the three kinds of samples”.
On to `O=C(O)c1ccccc1` [M8, Benzoic acid], for which the “Location” value in data set [3] is “urine and feces”.
With `COc1cc(CCC(=O)O)ccc1O` [M9a, Dihydroferulic acid], the “Location” value in data set [3] was “found in rat feces alone”.
Same read-out and setting: for `COc1ccc(/C=C/C(=O)O)cc1O` [M14b, Isoferulic acid] the value was “observed in all the three kinds of samples”.

In general, AUC(0-inf) refers to total exposure, with the tail of the curve extrapolated. One may read the AUC(0-t) as the area under the concentration-time curve up to a stated or last time point. As usually defined, the Cmax is the maximum level reached in the sampled fluid or tissue. What is called Tmax is the time at which the peak concentration occurs.
